How the values were obtained:
[1] = CO2 brine sparge test for sweet corrosive systems; details: 50 ppm active component, 24 hour test, 3.5 hours precorrosion, by weight loss
Protocol: The C02 brine sparge test is a reliable, quick test to screen compounds as corrosion inhibitors in "sweet" corrosive systems. A laboratory brine solution is sparged with stirring with 99.9% grade C02 for about one hour before immersing cleaned and weighed corrosion coupons. A M-1010 Pair@ meter was used to monitor the corrosion rate of each test cell. After one to two hours the corrosion rate reached a "steady state", but a precorrosion period of 3.5 hours was used for consistency before the test inhibitor was added. The precorroding period in the […] brine solution is very important. This provides a precor- roded test surface thereby minimizing surface preparation variations and also provides at least a minimal corrosion product layer without inhibitor in it against which the test inhibitor must work. This step is important, because in the equipment, the inhibitor is only rarely used from day one and then it is used on rusted steel and not freshly sand-blasted surfaces.
The inhibitors were injected below the brine surface at 50 ppm based on the active component. The 24 hour test period was monitored with a M-1010 PAIR meter as a "back-up", but the corrosion rates and percent protection were determined by weight loss measurements.

[2] = test system: Sulfate Reducers; assay: standard laboratory biocide screening, mixed culture; assay type: cell-based; details: 800 ppm, 24 hours exposure, extinction dilution in modified Sulfate API broth, 35° C
Protocol: (§1) The compound of Example 4 was tested for efficacy using a standard laboratory screening procedure. The compounds were tested against a mixed culture of aerobic and anaerobic bacteria, including sulfate reducers. The test medium consisted of aged artificial sea water with 0.1 gms/liter of nutrient broth added. The medium was purged with nitrogen to remove oxygen and inoculated with 10 mis/liter of a mixed culture of aerobic and anaerobic bacteria obtained from oilfield waters. Aliquots (50 ml) were dispensed into sterile, nitrogen-filled serum vials. Concentrations of the test compounds were prepared by adding the appropriate amount of a 5% solution of the compound to 50 mls of test medium. After 24 hours, exposure levels of aerobic, anaerobic and sulfate reducing bacteria were enumerated.

[3] = test system: Anaerobes; assay: as above; assay type: cell-based; details: 800 ppm, 24 hours exposure, extinction dilution in Difco Fluid Thioglycollate broth, 35° C
Protocol: as §1

[4] = test system: Aerobes; assay: as above; assay type: cell-based; details: 24 hours exposure, Standard Plate Count, Difco Plate Count Agar, 35° C, read-out: Aerobes (% killed)
Protocol: as §1

CCCCN(CCCC)C(=S)S [Example 1]
Percent Protect [1]: 92

S=C(S)NCCNC(=S)S [Example 2]
Percent Protect [1]: 85

S=C(S)NCCCN1CCN(CCCNC(=S)S)CC1 [Example 3]
Percent Protect [1]: 96

S=C(S)NCCCCC(CCCNC(=S)S)CNC(=S)S (centres unmarked) [Example 4]
Percent Protect [1]: 99
Surviving Bacteria/ml Sulfate Reducers [2]: 10 mL⁻¹
Surviving Bacteria/ml Anaerobes [3]: 10 mL⁻¹
killing at 800 ppm [4]: 99%

S=C(S)NCCN(CCN(CCN(CCNC(=S)S)C(=S)S)C(=S)S)C(=S)S [Example 5]
Percent Protect [1]: 97

S=C(S)NCCCCCCN(CCCCCCNC(=S)S)C(=S)S [Example 6]
Percent Protect [1]: 96

S=C(S)NCCN(CCNC(=S)S)C(=S)S [Example 7]
Percent Protect [1]: 92

CCCCCCCCN(CCCNC(=S)S)C(=S)S [Example 8]
Percent Protect [1]: 96
